According to patent US11013696B2, “Lipids and lipid compositions for the delivery of active agents” (Novartis AG, priority 2013, dated 2021):

Experiments:
[1] = Percent encapsulation of mRNA in lipid nanoparticles (Quant-iT Ribogreen); format: physicochemical; conditions: Table 2; leptin mRNA in LNP with the cationic lipid
Experimental: All equipment and disposable supplies are certified free of RNase activity by the manufacturer or rendered RNase free by use of the RNaseZap reagent (LifeTechnologies). mRNA is encapsulated at a cationic lipid amine to mRNA phosphate (N:P) molar ratio of 4:1. Lipids (cationic lipid, DSPC, cholesterol and lipidated PEG or stealth lipid) are dissolved in ethanol. The molar ratios are 40:10:38:2, respectively. The mixture is sonicated briefly, then gently agitated for 5 minutes and then maintained at 37° C. until use. mRNA is exchanged into citrate buffer pH 5.8-6.0 by use of Amicon Ultra-15 centrifugal concentrators, and the final concentration is adjusted to 0.5 mg/ml and held at 37° C. until use. An equal volume of lipids in ethanol, mRNA in citrate buffer, and citrate buffer alone are drawn into disposable syringes. Tubing leading from syringes containing lipids and mRNA are attached to the T junction, and tubing leading from the syringe containing citrate buffer alone is paired with the tubing exiting the T-junction over a collection vessel containing a stir bar on an active stir plate. Syringes are placed in a syringe pump set to expel contents at a flow rate of 1 ml per minute.
The pump is activated, and the collected mRNA in lipid nanoparticles is transferred to SnakeSkin dialysis tubing (10,000 MWCO, Thermo Scientific). Material is dialyzed against RNAse- and pyrogen-free 1× phosphate buffered saline overnight at 4° C.
Percent encapsulation of mRNA in lipid nanoparticles is determined using the Quant-iT Ribogreen RNA Assay kit (Life Technologies). The LNP-mRNA suspension is assayed in buffer (mRNA outside the particle), and buffer plus Triton X-100 detergent (total mRNA). The difference calculated is the mRNA inside the particle. Prepare a 1000 ng/mL stock from the RNA provided in the kit and use this to generate a standard curve (0 ng/ml, 15.63-1000 ng/ml) in TE and TE+0.75% Triton X-100. Prepare LNP-mRNA samples in TE buffer and TE buffer +0.75% Triton X-100 with appropriate dilution so that reading is in the range of standard curve (400-2,000 fold). In a 384-well plate (Costar non-treated #3573) add 0.04 ml of standard (in duplicate) or sample (in triplicate) per well. Dilute Ribogreen reagent 240-fold in TE buffer and add 0.06 ml per well. Mix contents of wells and measure fluorescence (excitation=480 nm, emission=520 nm). Subtract background values (no RNA) from standard and test sample values and determine the concentrations of RNA in the samples using the standard curves. Determine the percent encapsulation of the sample by dividing the difference in concentrations between sample+triton and sample in buffer alone by the sample+triton concentration.

[2] = siRNA encapsulation in lipid nanoparticles (SYBR Gold); format: physicochemical; conditions: Table 2; FVII siRNA in LNP with the cationic lipid
Experimental: The lipid nanoparticles (LNPs) were formed by mixing equal volumes of lipids dissolved in alcohol with siRNA dissolved in a citrate buffer by an impinging jet process. The lipid solution contains a cationic lipid compound of the invention, a helper lipid (cholesterol), an optional neutral lipid (DSPC) and a PEG (PEG) lipid at a concentration of 8-16 mg/mL with a target of 12 mg/mL in an alcohol. The siRNA to total lipid ratio is approximately 0.05 (wt/wt). Where a LNP formulation contains four lipid components, the molar ratios of the lipids ranges from 20 to 70 mole percent for the cationic lipid with a target of 40-60, the mole percent of helper lipid ranges from 20 to 70 with a target of 30 to 50, the mole percent of neutral lipid ranges from 0-30, the mole percent of PEG lipid has a range from 1 to 6 with a target of 2 to 5. The concentration of siRNA solution ranges from 0.7 to 1.0 mg/mL with a target of 0.8 to 0.9 mg/mL in a sodium citrate: sodium chloride buffer pH 4-6, with a target of 4.5-5.5. The LNPs are formed by mixing equal volumes of lipid solution in ethanol with siRNA dissolved in a citrate buffer by an impinging jet process through a mixing device with ID ranging from 0.25 to 2.0 mm at a flow rate from 10 to 640 mL/min. The mixed LNP solution is held at room temperature for 0-24 hrs prior to a dilution step. The solution is then concentrated and diafiltered with suitable buffer by ultrafiltration or dialysis process using membranes with a MW cutoff from 30 to 500 KD. The final product is sterile filtered and stored at 4° C.
The lipid nanoparticles (LNPs) were formed by mixing equal volumes of lipids dissolved in alcohol with siRNA dissolved in a citrate buffer by an impinging jet process. The lipid solution contains a cationic lipid compound of the invention, a helper lipid (cholesterol), an optional neutral lipid (DSPC) and a stealth lipid (5010, S024, S027, or S031) at a concentration of 8-16 mg/mL with a target of 12 mg/mL in an alcohol. The siRNA to total lipid ratio is approximately 0.05 (wt/wt). Where a LNP formulation contains four lipid components, the molar ratios of the lipids ranges from 20 to 70 mole percent for the cationic lipid with a target of 40-60, the mole percent of helper lipid ranges from 20 to 70 with a target of 30 to 50, the mole percent of neutral lipid ranges from 0-30, the mole percent of PEG lipid has a range from 1 to 6 with a target of 2 to 5. The concentration of siRNA solution ranges from 0.7 to 1.0 mg/mL with a target of 0.8 to 0.9 mg/mL in a sodium citrate: sodium chloride buffer pH 4-6, with a target of 4.5-5.5. The LNPs are formed by mixing equal volumes of lipid solution in ethanol with siRNA dissolved in a citrate buffer by an impinging jet process through a mixing device with ID ranging from 0.25 to 2.0 mm at a flow rate from 10 to 640 mL/min. The mixed LNP solution is held at room temperature for 0-24 hrs prior to a dilution step. The solution is then concentrated and diafiltered with suitable buffer by ultrafiltration process using membranes with a MW cutoff from 30 to 500 KD. The final product is sterile filtered and stored at 4° C.
SYBR Gold flourescence reagent is used for the determination of siRNA encapsulation in the DLP's. DLP's with and without triton x-100 are used to determine the free siRNA and total siRNA amounts. DLP's samples with and without triton X-100 were excited at 485 nm and flourescence emission is measured at 530 nm. Encapsulation efficiency is calculated based on the following formula: Encapsulation efficiency:[([…])/(total siRNA concentration)]×100% Encapsulation Data

Row | Compound | % encapsulation mRNA Leptin [1] | % encapsulation siRNA FVII [2]
1 | CCCCCCCCCCCCC(CCOC(=O)CCCCCC(COC(=O)CCCCCCC)COC(=O)CCCCCCC)OC(=O)OCCCN(CC)CC (stereo not drawn) [Example 6, 2-(10-dodecyl-3-ethyl-8,14-dioxo-7,9,13-trioxa-3-azanonadecan-19-yl)propane-1,3-diyl dioctanoate] | 24.0% | 91.7%
2 | CCCCCCCCCCCCC(CCOC(=O)CCCCCCC(COC(=O)CCCCCCC)COC(=O)CCCCCCC)OC(=O)OCCCN(CC)CC (stereo not drawn) [Example 9, 2-(10-dodecyl-3-ethyl-8,14-dioxo-7,9,13-trioxa-3-azaicosan-20-yl)propane-1,3-diyl dioctanoate] | 96.6% | 91.0%
3 | CCCCCCCCCCCCC(CCOC(=O)CCCCCCC(COC(=O)CCCCCCC)COC(=O)CCCCCCC)OC(=O)OCCCN(C)C (stereo not drawn) [Example 10, 2-(9-dodecyl-2-methyl-7,13-dioxo-6,8,12-trioxa-2-azanonadecan-19-yl)propane-1,3-diyl dioctanoate] | 88.4% | 89.9%
4 | CCCCCCCCCCCCC(CCOC(=O)CCC(OCCCCCCCC)OCCCCCCCC)OC(=O)OCCCN(CC)CC (stereo not drawn) [Example 11, 3-(((3-(diethylamino)propoxy)carbonyl)oxy)pentadecyl 4,4-bis(octyloxy)butanoate] | 98.2% | 89.7%
5 | CCCCCCCCCCCCC(CCOC(=O)CCC(OCC(CCC)CCC)OCC(CCC)CCC)OC(=O)OCCCN(CC)CC (stereo not drawn) [Example 13, 3-(((3-(diethylamino)propoxy)carbonyl)oxy)pentadecyl 4,4-bis((2-propylpentyl)oxy)butanoate] | 81.1% | 90.3%
6 | CCCCCCCCCCCCC(CCOC(=O)CCC(OCC(CCC)CCC)OCC(CCC)CCC)OC(=O)OCCCN(C)CC (stereo not drawn) [Example 14, 3-(((3-(ethyl(methyl)amino)propoxy)carbonyl)oxy)pentadecyl 4,4-bis((2-propylpentyl)oxy)butanoate] | 99.4% | 88.0%
7 | CCCCCCCCCCCCC(CCOC(=O)CCC(OCC(CCC)CCC)OCC(CCC)CCC)OC(=O)OCCCN(C)C (stereo not drawn) [Example 15, 3-(((3-(dimethylamino)propoxy)carbonyl)oxy)pentadecyl 4,4-bis((2-propylpentyl)oxy)butanoate] | 98.9% | 91.0%
8 | CCCCCCCCCCCCC(CCOC(=O)CCCCC(OCCCCCC)OCCCCCC)OC(=O)OCCCN(CC)CC (stereo not drawn) [Example 17, 3-(((3-(diethylamino)propoxy)carbonyl)oxy)pentadecyl 6,6-bis(hexyloxy)hexanoate] | 84.6% | 88.3%
9 | CCCCCCCCCCCCC(CCOC(=O)CCCCCCC(OCC(CCC)CCC)OCC(CCC)CCC)OC(=O)OCCCN(CC)CC (stereo not drawn) [Example 21, 3-(((3-(diethylamino)propoxy)carbonyl)oxy)pentadecyl 8,8-bis((2-propylpentyl)oxy)octanoate] | 98.2% | 91.2%
10 | CCCCCCCCCCCCC(CCOC(=O)CCCCCCC(OCC(CCC)CCC)OCC(CCC)CCC)OC(=O)OCCCN(C)CC (stereo not drawn) [Example 22, 3-(((3-(ethyl(methyl)amino)propoxy)carbonyl)oxy)pentadecyl 8,8-bis((2-propylpentyl)oxy)octanoate] | 99.2% | 91.7%
11 | CCCCCCCCCCCCC(CCOC(=O)CCCCCCC(OCC(CCC)CCC)OCC(CCC)CCC)OC(=O)OCCCN(C)C (stereo not drawn) [Example 23, 3-(((3-(dimethylamino)propoxy)carbonyl)oxy)pentadecyl 8,8-bis((2-propylpentyl)oxy)octanoate] | 98.0% | 92.0%
12 | CCCCC/C=C\C/C=C\CCCCCCCC(=O)OCCC(CCCCCCCCCCCC)OC(=O)OCCCN(C)CC (stereo not drawn) [Example 45, (9Z,12Z)-3-(((3-(ethyl(methyl)amino)propoxy)carbonyl)oxy)pentadecyl octadeca-9,12-dienoate] | 88.2% | 86.4%
13 | CCCCCCCCCCCCCC(=O)OCC(COC(=O)CCCCCCCCCCCCC)OC(=O)CCC(CCCCCCCCCCCC)OC(=O)OCCCN(CC)CC (stereo not drawn) [Example 84, 2-((4-(((3-(diethylamino)propoxy)carbonyl)oxy)hexadecanoyl)oxy)propane-1,3-diyl ditetradecanoate] | 83.1% | 77.5%
14 | CCCCCCCCCCCCC(CCC(=O)OC(COC(=O)CCCCCCCCCCC)COC(=O)CCCCCCCCCCC)OC(=O)OCCCN(CC)CC (stereo not drawn) [Example 88, 2-((4-(((3-(diethylamino)propoxy)carbonyl)oxy)hexadecanoyl)oxy)propane-1,3-diyl didodecanoate] | 39.2% | 77.4%
15 | CCCCC/C=C\C/C=C\CCCCCCCC(=O)OCCN(CCOC(=O)CCCCCCC/C=C\C/C=C\CCCCC)C(=O)CCC(CCCCCCCCCCCC)OC(=O)OCCCN(CC)CC (stereo not drawn) [Example 103, (9Z,12Z)-10-dodecyl-3-ethyl-14-(2-((9Z,12Z)-octadeca-9,12-dienoyloxy)ethyl)-8,13-dioxo-7,9-dioxa-3,14-diazahexadecan-16-yl octadeca-9,12-dienoate] | 72.5% | 83.2%
